Data taken from patent US6719958B1, “Polychelants, their complexes with metal ions, their preparation and their uses” (Dibra S.p.A., priority 1996, dated 2004).

What was measured:
[1] = according to the literature (Lauffer R. B. (1990) Magn. Reson. Quart. 2, 65-84); cited from earlier work
[2] = Relaxivity measurement (Bruker Minispec 120, 0.5 T, 39° C.); type: physicochemical; conditions: on a per gadolinium basis
Method: For some Gd-containing products the relaxivity r1 was measured using a Bruker Minispec 120, at 0.5 T and 39° C.

Molecule: O=C([O-])CN1CCN(CC(=O)[O-])CCN(CC(=O)O)CCN(CC(=O)[O-])CC1.[Gd+3] [Gd-DOTA]
- r1 value [1]: 3.4 mM⁻¹ s⁻¹

Molecule: Gadolinium Complex of N^□,N^ε,N^ε(a)-Tris-[4-aza-5-oxo-6-(1,4,7,10-tetraazacyclododecol-4,7,10-triacetate)hexyl]-L-lysine [Example 4]
- Relaxivity r1 ([2]; 0.5 T and 39° C.): 5.25 s⁻¹ mM⁻¹

Molecule: O=C(O)CN1CCN(CC(=O)O)CCN(CC(=O)NCCCN(CCCC[C@H](NC(=O)OCc2ccccc2)C(=O)O)CCCNC(=O)CN2CCN(CC(=O)O)CCN(CC(=O)O)CCN(CC(=O)O)CC2)CCN(CC(=O)O)CC1 [Example 6, N^α-Carbobenzyloxy-N^ε,N^ε-bis-[4-aza-5-oxo-6-(1,4,7,10-tetraazacyclododecyl-4,7,10-triacetate)hexyl]-L-lysine]
- Relaxivity r1 [2]: 8.35 s⁻¹ mM⁻¹

Molecule: Gadolinium Complex of N^□,N^□,N^ε,N^ε-Tetrakis-[4-aza-5-oxo-6-(1,4,7,10-tetraazacyclododecyl-4,7,10-triacetate)hexyl]-L-lysine [Example 5]
- Relaxivity r1 ([2]; 0.5 T and 39° C.): 8.35 s⁻¹ mM⁻¹

B1: Example 9: Conjugate of gadolinium complex compound (IVa) with horse heart myoglobin; Gd content 27.9 mol/mol protein (conjugate, UniProt P68082 2-154, looked up)
Myoglobin: GLSDGEWQQVLNVWGKVEADIAGHGQEVLIRLFTGHPETLEKFDKFKHLKTEAEMKASEDLKKHGTVVLTALGGILKKKGHHEAELKPLAQSHATKHKIPIKYLEFISDAIIHVLHSKHPGDFGADAQGAMTKALELFRNDIAAKYKELGFQG
modifications: gadolinium complex IVa conjugate
notes: Conjugate of gadolinium complex compound (IVa) with horse heart myoglobin; Gd content 27.9 mol/mol protein
- Relaxivity r1 ([2]; 0.5 T and 39° C.): 19 s⁻¹ mM⁻¹
